Where a name gives a salt, the structure may show the parent alone. Read-outs that look alike come from different tables or passages of the source.

Here are results for nine compounds from patent US9714244B2, “Substituted pyrido[4,3-d]pyrimidines as Wee-1 inhibitors” (ALMAC DISCOVERY LIMITED, priority 2013, dated 2017).

The nature of data set [1]: CLint estimates using human liver microsomes. The settings on record: pH 7.4, read-out: HLM activity (HLM CLint). Format: in vitro ADME. Here is the method:
Method for the Determination of CLint Estimates Using Human Liver Microsomes
Test compounds (final concentration=1 μM; final DMSO concentration=0.1%) were incubated in 0.1M phosphate buffer pH 7.4 with human liver microsomes (0.5 mg of protein/mL) at 37° C. Reactions were started by addition of NADPH in 0.1M phosphate buffer pH 7.4 (final concentration 1 mM). 40 μL aliquots were removed at 2, 5, 10, 15, 20, 30, 40 and 50 min. Reactions were quenched in 80 μL of ice-cold methanol. Samples were subsequently frozen overnight then centrifuged at 3500 rpm for 20 min at 4° C. The supernatants were removed and transferred into analytical plates and analysed by LC/MS/MS.
All samples were analysed on a Waters Acquity I-Class coupled to a Waters Xevo TQD mass spectrometer. A Waters BEH C18 2.1×50 mm 1.7 μm column was used and mobile phases were water and methanol containing 0.1% formic acid as modifier. Analysis was by multiple reaction monitoring and conditions were optimised for each test compound.
From a plot of ln peak area against time, the gradient of the line is determined. Subsequently, half-life and intrinsic clearance are calculated using the following equations.

Data set [2] concerns the target Wee-1 kinase (Homo sapiens (Human), UniProt P30291). As to the kind of experiment: Measurement of Wee-1 kinase activity (ADP-Glo). The format is biochemical. Here is the method:
Method 1: Measurement of Wee-1 kinase activity
In the measurement of Wee-1 activity, a commercial peptide Poly(Lys Tyr(4:1)) hydrobromide was purchased from Sigma Aldrich and used as the substrate. Activated Wee-1 kinase was purchased from Invitrogen (PV3817) and an ADP-Glo luminescent kit was purchased from Promega.
All reactions took place in […] volumes in reaction buffer containing 40 mM Tris-HCl and 20 mM magnesium chloride, supplemented with 0.1 mg/mL bovine serum albumin and 2 mM DTT. Compounds were serially diluted in buffer and 5 μL of each concentration pipetted into a white 384 well plate (Sigma Aldrich M6186). A 5 μL aliquot of the Wee-1 enzyme was added to each well and the plate centrifuged for 1 min to ensure mixing of the enzyme and inhibitor.
The plate was incubated at room temperature for 30 minutes before the addition of 2.0 μg/mL of substrate and 30 μM ATP in a 5 μL aliquot. The plate was centrifuged for one minute and incubated for 1 h at RT.
15 μL of ADP-Glo stop reagent was added to each well to quench the reaction and deplete unconverted ATP. The plate was incubated for a further 40 min in the dark at RT.
30 μL of ADP-Glo kinase detection reagent was added to each well, converting ADP to ATP, catalysing the generation of luciferin by luciferase. The plate was shaken for 1 min, and incubated in the dark for an additional hour.
Luminescence from each well was detected using the Biotek Synergy4 HD plate reader and the percentage inhibition of kinase activity calculated for each inhibitor tested. Positive (kinase only) and negative (no kinase) controls were added to each plate to ensure specific interaction of kinase and inhibitor. The IC50 concentration for each inhibitor was calculated by plotting the percentage kinase inhibition against concentration of inhibitor and the curve generated by non-linear regression fitting.
(In ADP-Glo the light output rises with the ADP produced.)

For data set [3], the target named is human ether a go-go related gene (hERG) K+ channel (Homo sapiens (Human), UniProt Q12809). In words: hERG inhibition, IonWorks patch clamp electrophysiology. Format: cell-based. The settings on record: 8-point curve from 11 μM. Here is the method:
Compounds were tested for inhibition of the human ether a go-go related gene (hERG) K^+ channel using IonWorks patch clamp electrophysiology at Essen BioScience.
On the technique in general: hERG is a cardiac potassium channel; its block is linked to QT prolongation.

Data set [4] deals with phospho-cdc2 (Tyr15) in HT-29 cells. In words: Effect on phosphorylation of cdc2 at Tyr15 in HT-29 cells (PathScan ELISA). The settings on record: Homo sapiens, HT-29, 8 h; HT29 cells, eight hours incubation; read-out: HT29 pCDC2 activity. The format is cell-based. The protocol: Method 2: Determining the effect of compounds on the phosphorylation of cdc2 at Tyr15
The colorectal cancer cell lines HT-29 and HCT-116 were purchased from the ATCC and routinely maintained in McCoy's Medium (Invitrogen) supplemented with 10% Foetal Calf Serum.
The cells were trypsinised from their growing vessel and counted, 100 μL of cell suspension containing 6000 cells was pipetted into black 96 well Co-star plates and incubated overnight to allow adherence to the surface at a temperature of 37° C. and an atmosphere of 5% CO2. Test compounds were formulated in DMSO and diluted in foetal calf serum supplemented medium. Incubating medium was removed by aspiration and diluted drug supplemented medium added to each well.
The plate was returned to the incubator for an additional eight hours at 37° C. and an atmosphere of 5% CO2. Post incubation, the drug supplemented medium was aspirated from each well and the cells were washed once in ice-cold phosphate buffered saline (PBS). 100 μL of cell lysis buffer (Cell Signalling Technologies #9803) containing 20 mM Tris, 150 mM NaCl, 1 mM EDTA, 1 mM EGTA, 1% Triton-X100, 2.5 mM sodium pyrophosphate, 1 mM glycerophosphate, 1 mM Na3VO4 and 1 μg/mL leupeptin was added to each well of the 96 well plate and incubated at 4° C. for 30 min. The samples on the plate were snap frozen at −80° C. until required.
Immediately before the continuation of the assay, the sample plate was thawed and centrifuged at 4° C. for 10 min and the supernatant transferred to secondary tubes or 96 well plate.
Cell supernatant was mixed in a ratio of 1:1 with sample dilutent buffer and vortexed for one minute. 100 μL of diluted sample was pipetted into pre-coated plates containing a rabbit polyclonal antibody for phospho-cdc2 (Tyr15) (Cell Signalling Technologies PathScan kit #7176). The plate was sealed and incubated overnight at 4° C.
The plate seal was removed and the well contents aspirated, followed by 3×5 min washes with 200 μL of diluted wash buffer. Between each wash the plate was tapped firmly onto blotting paper to ensure the removal of all kit solution. 100 μL of kit detection antibody was added to each well and the plate re-sealed and incubated at 37° C. for 1 h. Post incubation the plate was washed and processed in a similar manner to that previously described.
100 μL of horseradish peroxidise-linked secondary antibody was added to each test well, the plate sealed and incubated for thirty minutes at 37° C. Post incubation, the plate was washed as previously stated, followed by the addition of 100 μL of 3,3′,5,5′ tetramethylbenzidine (TMB reagent). The plate was sealed and incubated at RT for 30 min.
100 μL of stop solution was added to each well and the underside of the plate wiped with a lint-free tissue, prior to spectrophotometric determination. Absorbance from each well was read at 450 nm within 30 min of the addition of the stop solution.
The percentage of phospho-cdc2 was calculated compared to DMSO control and plotted versus the concentration of inhibitor using GraphPad Prism. Data was fitted using non-linear regression analysis and IC50 values generated.

Chain of human ether a go-go related gene (hERG) K+ channel (Q12809 whole entry): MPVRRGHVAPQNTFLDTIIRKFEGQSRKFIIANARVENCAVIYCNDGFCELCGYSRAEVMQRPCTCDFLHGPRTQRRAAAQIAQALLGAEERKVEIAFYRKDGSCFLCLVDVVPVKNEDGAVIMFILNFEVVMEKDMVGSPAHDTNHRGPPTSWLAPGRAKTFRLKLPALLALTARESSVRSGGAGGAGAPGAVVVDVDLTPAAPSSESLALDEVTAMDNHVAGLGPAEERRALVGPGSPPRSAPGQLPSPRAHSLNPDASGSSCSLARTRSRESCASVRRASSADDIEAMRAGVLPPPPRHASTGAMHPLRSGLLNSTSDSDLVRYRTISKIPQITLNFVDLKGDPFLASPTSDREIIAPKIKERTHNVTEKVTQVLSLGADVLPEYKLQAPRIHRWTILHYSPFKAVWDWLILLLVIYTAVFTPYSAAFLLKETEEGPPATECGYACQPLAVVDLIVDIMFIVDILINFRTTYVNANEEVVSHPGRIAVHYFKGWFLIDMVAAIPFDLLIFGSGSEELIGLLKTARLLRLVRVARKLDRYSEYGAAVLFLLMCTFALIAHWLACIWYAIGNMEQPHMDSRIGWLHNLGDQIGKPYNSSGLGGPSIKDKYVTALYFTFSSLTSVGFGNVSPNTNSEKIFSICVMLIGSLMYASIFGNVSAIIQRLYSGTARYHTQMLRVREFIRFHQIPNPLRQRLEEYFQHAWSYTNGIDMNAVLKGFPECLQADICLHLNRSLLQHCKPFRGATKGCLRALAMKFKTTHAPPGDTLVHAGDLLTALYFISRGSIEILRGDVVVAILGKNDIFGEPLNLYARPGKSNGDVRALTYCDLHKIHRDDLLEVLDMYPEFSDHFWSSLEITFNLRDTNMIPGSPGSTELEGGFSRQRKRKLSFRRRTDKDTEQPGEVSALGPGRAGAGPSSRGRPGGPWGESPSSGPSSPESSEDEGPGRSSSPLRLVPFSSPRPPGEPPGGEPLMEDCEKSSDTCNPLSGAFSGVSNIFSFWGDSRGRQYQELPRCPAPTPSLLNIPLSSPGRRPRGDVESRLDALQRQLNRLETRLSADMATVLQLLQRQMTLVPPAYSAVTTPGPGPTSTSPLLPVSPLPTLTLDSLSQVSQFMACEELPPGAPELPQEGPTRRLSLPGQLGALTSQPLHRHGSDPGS
Chain of Wee-1 kinase (P30291 whole entry): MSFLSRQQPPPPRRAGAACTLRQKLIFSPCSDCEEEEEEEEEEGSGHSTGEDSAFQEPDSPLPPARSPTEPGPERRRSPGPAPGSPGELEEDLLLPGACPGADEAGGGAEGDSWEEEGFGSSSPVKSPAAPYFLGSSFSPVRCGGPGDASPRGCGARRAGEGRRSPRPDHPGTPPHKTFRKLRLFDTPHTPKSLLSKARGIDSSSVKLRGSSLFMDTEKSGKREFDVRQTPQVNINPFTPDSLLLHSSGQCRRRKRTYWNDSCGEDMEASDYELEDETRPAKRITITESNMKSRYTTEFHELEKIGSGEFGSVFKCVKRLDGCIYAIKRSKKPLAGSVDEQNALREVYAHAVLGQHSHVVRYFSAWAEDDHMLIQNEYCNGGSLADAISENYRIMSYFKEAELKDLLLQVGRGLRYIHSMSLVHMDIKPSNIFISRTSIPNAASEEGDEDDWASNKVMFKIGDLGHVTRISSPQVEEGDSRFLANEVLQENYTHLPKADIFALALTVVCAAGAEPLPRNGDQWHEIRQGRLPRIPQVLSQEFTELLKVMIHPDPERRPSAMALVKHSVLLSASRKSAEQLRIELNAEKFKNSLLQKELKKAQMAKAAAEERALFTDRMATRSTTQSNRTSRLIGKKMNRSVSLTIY

Regarding `O=c1c2cnc(Nc3ccc(N4CCOCC4)cc3)nc2ccn1-c1c(Cl)cccc1Cl` [Example 19, 6-(2,6-Dichlorophenyl)-2-((4-morpholinophenyl)amino)pyrido[4,3-d]pyrimidin-5(6H)-one], in data set [1], the microsomal CLint at 1 μM is greater than 20 µL/min/mg. Also, the IC50 in data set [2] was 10 to 200 nM; in data set [3] it was no less than 10000 nM; in data set [4], no less than 1000 nM.
The matching figures for `COc1cc(Nc2ncc3c(=O)n(-c4c(Cl)cccc4Cl)ccc3n2)ccc1N1CCN(C)CC1` [Example 12, 6-(2,6-Dichlorophenyl)-2-((3-methoxy-4-(4-methylpiperazin-1-yl)phenyl)amino)pyrido[4,3-d]pyrimidin-5(6H)-one, HCl]: greater than 20 µL/min/mg, 10 to 200 nM, 1000 to 10000 nM and no more than 100 nM.
Regarding `CNCCOc1ccc(Nc2ncc3c(=O)n(-c4c(Cl)cccc4Cl)ccc3n2)cc1` [Example 16, 6-(2,6-Dichlorophenyl)-2-((4-(2-(methylamino)ethoxy)phenyl)amino)pyrido[4,3-d]pyrimidin-5(6H)-one, HCl], in data set [1], the microsomal CLint at 1 μM is no more than 20 µL/min/mg. Also, the figures for the IC50 in data set [2], in data set [3] and in data set [4] were 10 to 200 nM, no less than 10000 nM and 100 to 1000 nM, respectively.
Take `CN(C)CCc1ccc(Nc2ncc3c(=O)n(-c4c(Cl)cccc4Cl)ccc3n2)cc1` [Example 11, 6-(2,6-Dichlorophenyl)-2-((4-(2-(dimethylamino)ethyl)phenyl)amino)pyrido[4,3-d]pyrimidin-5(6H)-one, HCl]: the microsomal CLint at 1 μM in data set [1] was greater than 20 µL/min/mg. Also, the IC50 in data set [2] (read-out: Wee-1 IC50 activity) lay in the range of 10 to 200 nM; in data set [3] it was 1000 to 10000 nM; in data set [4], 100 to 1000 nM.
For the compound `Cc1cn(-c2c(Cl)cccc2Cl)c(=O)c2cnc(Nc3ccc(N4CCNCC4)cc3)nc12` [Example 2, 6-(2,6-Dichlorophenyl)-8-methyl-2-((4-(piperazin-1-yl)phenyl)amino)pyrido[4,3-d]pyrimidin-5(6H)-one], the microsomal CLint at 1 μM in data set [1] is no more than 20 µL/min/mg. Also, the IC50 is less than 10 nM in data set [2] (read-out: Wee-1 IC50 activity), no less than 10000 nM in data set [3] and 100 to 1000 nM in data set [4].
The matching figures for `CN1CCC(c2ccc(Nc3ncc4c(=O)n(-c5c(Cl)cccc5Cl)ccc4n3)cc2)CC1` [Example 10, 6-(2,6-Dichlorophenyl)-2-((4-(1-methylpiperidin-4-yl)phenyl)amino)pyrido[4,3-d]pyrimidin-5(6H)-one, HCl]: no more than 20 µL/min/mg, less than 10 nM, 1000 to 10000 nM and 100 to 1000 nM.
Take `CC(C)N1CCN(c2ccc(Nc3ncc4c(=O)n(-c5c(Cl)cccc5Cl)ccc4n3)cc2)CC1` [Example 17, 6-(2,6-Dichlorophenyl)-2-((4-(4-isopropylpiperazin-1-yl)phenyl)amino)pyrido[4,3-d]pyrimidin-5(6H)-one]: in data set [1], the microsomal CLint at 1 μM was greater than 20 µL/min/mg. For the same compound, the values for the IC50 in data set [2] (read-out: Wee-1 IC50 activity), in data set [3] and in data set [4] were 10 to 200 nM, 1000 to 10000 nM and 100 to 1000 nM, respectively.
In the case of `CC(=O)N1CCN(c2ccc(Nc3ncc4c(=O)n(-c5c(Cl)cccc5Cl)ccc4n3)cc2)CC1` [Example 5, 2-((4-(4-Acetylpiperazin-1-yl)phenyl)amino)-6-(2,6-dichlorophenyl)pyrido[4,3-d]pyrimidin-5(6H)-one], the microsomal CLint at 1 μM in data set [1] is no more than 20 µL/min/mg. The IC50 in data set [2] (read-out: Wee-1 IC50 activity) was 10 to 200 nM; in data set [4], 100 to 1000 nM.
The matching figures for `O=c1c2cnc(Nc3ccc(N4CCN(CCO)CC4)cc3)nc2ccn1-c1c(Cl)cccc1Cl` [Example 21, 6-(2,6-Dichlorophenyl)-2-((4-(4-(2-hydroxyethyl)piperazin-1-yl)phenyl)amino)pyrido[4,3-d]pyrimidin-5(6H)-one]: greater than 20 µL/min/mg, less than 10 nM and no more than 100 nM.
